15 molecules from patent US20240262801A1, “COMPOUNDS HAVING 5-(2-FLUORO-6-HYDROXYPHENYL)-1,2,5-THIADIAZOLIDIN-3-ONE 1,1-DIOXIDE AS INHIBITORS OF PROTEIN KINASE PHOSPHATASE ENZYMES” (Ness Therapeutics, Inc., priority 2021, published 2024) can be followed below.

In assay [1] the test system is B16F10 mouse melanoma cells. The assay can be described thus: Tumor cells B16F10 cellular growth IFNγ-induced inhibition assay (CellTiter-Glo). The format is cell-based. The conditions noted are these: for IC50: B16-F10, 72 h, 3 days incubation; for inhibition at 100 µM: B16-F10, B16F10, 100 μM compound. Here is the method:
B16F10 mouse melanoma cells (ATCC Cat #CRL-6475) were seeded at a density of 500 cells per well in a 384-well clear bottom plate (Corning Cat #3712, Corning, N.Y.) in 40 μL total volume of DMEM+10% FBS (PanEco Cat #C420, Russia and Sigma Cat #F4135, St. Louis, Mo.). Cells were allowed to adhere overnight at 37° C., 5% CO2. On the following day, 250× solutions of compounds in DMSO (Sigma Cat #D2650) were prepared into […] plate (Diamond Well Plate, Axigen, Cat #P-384-120SQ-C-S) (final concentration of 1×) and DMSO only controls were included. Dilution Plate (Diamond Well Plate (Axigen, Cat #P-384-120SQ-C-S) was prepared by adding 49 μL of culture medium per well: half of the plate with culture medium only, half with culture medium+IFNγ (5 ng/ml). A 1 μL aliquot of 250× compounds ([…] plate) was added to 49 μL of culture medium (Dilution plate), then a 10 μL aliqut of the mixture was transferred to Reaction plate with 40 μL of cells followed by centrifugation at 240 g for 1 min. After 3 days of incubation, 10 μL of CellTiter-Glo (Promega) was added to the cells, plates were centrifuged at 240 g for 1 min, and luminescence signal was measured. For each compound, the percent growth inhibition at every compound dose level was calculated relative to the “DMSO/with IFNγ” control and used to determine the IC50.
In general terms: In ATP-based viability assays light output follows the ATP content of the culture.

Assay [2] addresses T1, GST-tagged PTPN2 protein (Homo sapiens, UniProt P17706).
T1 construct: purchased ActiveMotif 31592
The assay can be described thus: Primary assay of PTPN2 enzymatic activity inhibition (DiFMUP fluorescence). The format is biochemical. The conditions noted are these: DiFMUP substrate 2 μM, 60 min at RT. Here is the method: Compound activity was determined using GST-tagged PTPN2 protein (Cat #31592, ActiveMotif) (SEQ ID NO: 1) in an in vitro enzymatic reaction. The enzymatic reaction was carried out in assay buffer (50 mM HEPES Na salt pH 7.2-7.4, 2 mM EDTA, 100 mM NaCl, 52 ng/μL BSA, and 6 mM DTT). The compounds were dispensed on a 384 well Diamond Well Plate (Axigen, Cat #P-384-120SQ-C-S) using the Biomek FX liquid handling system at 100× solutions of compounds in DMSO. 2× PTPN2 (final concentration 0.004 ng/μL) was prepared in 1× Assay buffer and 25 μL of mixture per well was added into Reaction plate (Optiplate, black, Perkin Elmer, Cat #6007270). Add 25 μL of 1× buffer to Ctrl- (Substrate w/o PTPN2) wells followed by centrifugation at 100 g for 1 min. Next step the Compounds were added to Reaction plate using Biomek station via following steps: 3 ul of 100× compounds (in DMSO) were mixed with 27 μL of Assay Buffer, then 5 μL of this mixture was added to Reaction plate with 25 μL of PTPN2 Mix. Plates were centrifuged for 1 min at 100 g and incubated for another 10 minutes at room temperature. Finally, 20 μL of 2.5× Substrate (DiFUMP, Invitrogen™ Cat #D6567) mix was added into appropriate wells of Reaction plate to the final concentration of 2 μM, plate was centrifuged at 100 g for 1 min followed by incubation at RT for 60 min, and the Fluorescence Intensity was measured using a Microplate Reader (ClarioStar Plus, excitation 360 nm, emission 450 nm). The % inhibition was then used to calculate the IC50 values. The IC50 values are shown in Table A1, wherein “A” corresponds to IC50<5.0 nm, “B” corresponds to 5.0 nm≤IC50<10.0 nm, “C” corresponds to 10.0 nm≤IC50<50.0 nm, “D” corresponds to 50.0 nm≤IC50<100.0 nm, and “E” corresponds to 100.0 nm≤IC50<500.0 nm, and “F” corresponds to 500.0 nm≤IC50.

[3] abbreviates: B16F10, + IFNγ, read-out: IC50 + IFNγ.
Setting [4] is: B16F10, no IFNγ, read-out: IC50 no IFNγ.
Where [5] appears, read: + IFNγ, read-out: % Growth Inhibition at 100 μM + IFNγ.
The mark [6] stands for this setting: no IFNγ, read-out: % Growth Inhibition at 100 μM no IFNγ.

In general, IC50 refers to the concentration needed to halve the response being measured. As usually defined, the inhibition is the percentage by which the read-out fell short of the control.

Where two headings read alike, the source gives them in different places. Bounds are passed on as bounds.

T1 sequence (P17706 with tags, fused parts or gaps): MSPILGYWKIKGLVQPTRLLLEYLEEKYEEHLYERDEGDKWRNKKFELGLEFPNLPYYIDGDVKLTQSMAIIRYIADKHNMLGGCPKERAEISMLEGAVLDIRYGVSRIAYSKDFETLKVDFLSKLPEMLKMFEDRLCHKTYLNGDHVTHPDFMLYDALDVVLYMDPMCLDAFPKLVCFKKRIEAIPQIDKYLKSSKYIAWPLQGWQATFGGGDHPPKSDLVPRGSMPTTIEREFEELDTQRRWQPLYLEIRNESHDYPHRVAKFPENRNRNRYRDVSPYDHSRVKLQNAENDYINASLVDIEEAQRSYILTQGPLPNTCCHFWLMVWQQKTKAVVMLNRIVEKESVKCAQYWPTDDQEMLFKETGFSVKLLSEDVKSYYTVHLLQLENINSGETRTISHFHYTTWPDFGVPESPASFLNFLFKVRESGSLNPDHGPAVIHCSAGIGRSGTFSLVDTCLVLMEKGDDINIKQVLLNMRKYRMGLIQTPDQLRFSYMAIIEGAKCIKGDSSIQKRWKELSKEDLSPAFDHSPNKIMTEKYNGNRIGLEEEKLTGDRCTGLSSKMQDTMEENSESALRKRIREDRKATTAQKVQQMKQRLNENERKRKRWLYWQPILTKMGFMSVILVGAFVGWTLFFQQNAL

`Cc1ccc(-c2cc(C(F)(F)F)nn2-c2ccc(S(=O)(=O)Nc3cc(O)c(N4CC(=O)NS4(=O)=O)c(F)c3)cc2)cc1` [Example 19, N-[4-(1,1-dioxido-4-oxo-1,2,5-thiadiazolidin-2-yl)-3-fluoro-5-hydroxyphenyl]-4-[5-(4-methylphenyl)-3-(trifluoromethyl)-1H-pyrazol-1-yl]benzenesulfonamide]: the IC50 is ≥ 100 µM in assay [1] (setting [3]), ≥ 100 µM in assay [1] (setting [4]) and 0.1 to 0.5 µM in assay [2]. The inhibition at 100 µM in assay [1] (setting [5]) and in assay [1] (setting [6]) was 10 to 50% in each case.
With `O=C1CN(c2c(O)cc(NS(=O)(=O)c3ccc(F)cc3)cc2F)S(=O)(=O)N1` [Example 20, N-[4-(1,1-dioxido-4-oxo-1,2,5-thiadiazolidin-2-yl)-3-fluoro-5-hydroxyphenyl]-4-fluorobenzenesulfonamide], the 50% inhibitory concentration (IC50) in assay [1] (setting [3]) is 10 to 50 µM; in assay [1] (setting [4]), ≥ 100 µM; in assay [2], 0.05 to 0.1 µM. Besides, the inhibition at 100 µM in assay [1] (setting [5]) lay within 50 to 75%; in assay [1] (setting [6]), 10 to 50%.
The matching figures for `O=C1CN(c2c(O)cc(NS(=O)(=O)c3ccccc3F)cc2F)S(=O)(=O)N1` [Example 21, N-[4-(1,1-dioxido-4-oxo-1,2,5-thiadiazolidin-2-yl)-3-fluoro-5-hydroxyphenyl]-2-fluorobenzenesulfonamide]: 10 to 50 µM, ≥ 100 µM, 0.1 to 0.5 µM, 50 to 75% and 10 to 50%.
The matching figures for `Cc1cccc(S(=O)(=O)Nc2cc(O)c(N3CC(=O)NS3(=O)=O)c(F)c2)c1` [Example 22, N-[4-(1,1-dioxido-4-oxo-1,2,5-thiadiazolidin-2-yl)-3-fluoro-5-hydroxyphenyl]-3-methylbenzenesulfonamide]: 10 to 50 µM, ≥ 100 µM, 0.01 to 0.05 µM, 50 to 75% and 10 to 50%.
As to `Cc1ccccc1S(=O)(=O)Nc1cc(O)c(N2CC(=O)NS2(=O)=O)c(F)c1` [Example 23, N-[4-(1,1-dioxido-4-oxo-1,2,5-thiadiazolidin-2-yl)-3-fluoro-5-hydroxyphenyl]-2-methylbenzenesulfonamide], the IC50 in assay [1] (setting [3]) is 50 to 100 µM; in assay [1] (setting [4]) it was ≥ 100 µM; in assay [2], 0.05 to 0.1 µM. Besides, the inhibition at 100 µM in assay [1] (setting [5]) was in the range of 50 to 75%; in assay [1] (setting [6]) it was 10 to 50%.
For `CC(C)(C)c1ccc(S(=O)(=O)Nc2cc(O)c(N3CC(=O)NS3(=O)=O)c(F)c2)cc1` [Example 24, 4-tert-butyl-N-[4-(1,1-dioxido-4-oxo-1,2,5-thiadiazolidin-2-yl)-3-fluoro-5-hydroxyphenyl]benzenesulfonamide], the IC50 was ≥ 100 µM in assay [1] (setting [3]), ≥ 100 µM in assay [1] (setting [4]) and 0.01 to 0.05 µM in assay [2]. In addition, the results for the inhibition at 100 µM in assay [1] (setting [5]) and in assay [1] (setting [6]) were 50 to 75% and 10 to 50%, respectively.
For `COc1ccc(S(=O)(=O)Nc2cc(O)c(N3CC(=O)NS3(=O)=O)c(F)c2)cc1` [Example 25, N-[4-(1,1-dioxido-4-oxo-1,2,5-thiadiazolidin-2-yl)-3-fluoro-5-hydroxyphenyl]-4-methoxybenzenesulfonamide], the half-inhibitory concentration (IC50) in assay [1] (setting [3]) was 10 to 50 µM; in assay [1] (setting [4]), ≥ 100 µM; in assay [2], 0.01 to 0.05 µM. For the same molecule, the inhibition at 100 µM in assay [1] (setting [5]) lay in the range of 50 to 75%; in assay [1] (setting [6]) it was 10 to 50%.
Consider `COc1ccc(S(=O)(=O)Nc2cc(O)c(N3CC(=O)NS3(=O)=O)c(F)c2)cc1OC` [Example 26, N-[4-(1,1-dioxido-4-oxo-1,2,5-thiadiazolidin-2-yl)-3-fluoro-5-hydroxyphenyl]-3,4-dimethoxybenzenesulfonamide], for which the results for the IC50 in assay [1] (setting [3]), in assay [1] (setting [4]) and in assay [2] were 10 to 50 µM, ≥ 100 µM and 0.01 to 0.05 µM, respectively. In addition, the inhibition at 100 µM is 50 to 75% in assay [1] (setting [5]) and 10 to 50% in assay [1] (setting [6]).
The matching figures for `Cc1c(S(=O)(=O)Nc2cc(O)c(N3CC(=O)NS3(=O)=O)c(F)c2)cnn1C(F)F` [Example 27, 1-(difluoromethyl)-N-[4-(1,1-dioxido-4-oxo-1,2,5-thiadiazolidin-2-yl)-3-fluoro-5-hydroxyphenyl]-5-methyl-1H-pyrazole-4-sulfonamide]: ≥ 100 µM, ≥ 100 µM, 0.05 to 0.1 µM, 10 to 50% and 10 to 50%.
On the same counts, the results for `CCCCS(=O)(=O)Nc1cc(O)c(N2CC(=O)NS2(=O)=O)c(F)c1` [Example 28, N-[4-(1,1-dioxido-4-oxo-1,2,5-thiadiazolidin-2-yl)-3-fluoro-5-hydroxyphenyl]butane-1-sulfonamide] are 50 to 100 µM, ≥ 100 µM, 0.1 to 0.5 µM, 50 to 75% and 10 to 50%.
The matching figures for `O=C1CN(c2c(O)cc(NC(=O)Nc3ccccc3)cc2F)S(=O)(=O)N1` [Example 35, 1-[4-(1,1-dioxido-4-oxo-1,2,5-thiadiazolidin-2-yl)-3-fluoro-5-hydroxyphenyl]-3-phenylurea]: 10 to 50 µM, ≥ 100 µM, 0.005 to 0.01 µM, 75 to 100% and 10 to 50%.
As for `Cc1ccc(NC(=O)Nc2cc(O)c(N3CC(=O)NS3(=O)=O)c(F)c2)cc1` [Example 36, 1-[4-(1,1-dioxido-4-oxo-1,2,5-thiadiazolidin-2-yl)-3-fluoro-5-hydroxyphenyl]-3-(4-methylphenyl)urea], the IC50 in assay [1] (setting [3]) is 50 to 100 µM; in assay [1] (setting [4]) it was ≥ 100 µM; in assay [2], < 0.005 µM. Also, the inhibition at 100 µM is 50 to 75% in assay [1] (setting [5]) and 10 to 50% in assay [1] (setting [6]).
On the same counts, the results for `COc1ccc(NC(=O)Nc2cc(O)c(N3CC(=O)NS3(=O)=O)c(F)c2)cc1` [Example 37, 1-[4-(1,1-dioxido-4-oxo-1,2,5-thiadiazolidin-2-yl)-3-fluoro-5-hydroxyphenyl]-3-(4-methoxyphenyl)urea] are ≥ 100 µM, ≥ 100 µM, < 0.005 µM, 10 to 50% and 10 to 50%.
The matching figures for `Cc1ccccc1NC(=O)Nc1cc(O)c(N2CC(=O)NS2(=O)=O)c(F)c1` [Example 39, 1-[4-(1,1-dioxido-4-oxo-1,2,5-thiadiazolidin-2-yl)-3-fluoro-5-hydroxyphenyl]-3-(2-methylphenyl)urea]: 50 to 100 µM, ≥ 100 µM, 0.01 to 0.05 µM, 50 to 75% and 10 to 50%.
Consider `O=C1CN(c2c(O)cc(NC(=O)Nc3ccc(C(F)(F)F)cc3)cc2F)S(=O)(=O)N1` [Example 41, 1-[4-(1,1-dioxido-4-oxo-1,2,5-thiadiazolidin-2-yl)-3-fluoro-5-hydroxyphenyl]-3-[4-(trifluoromethyl)phenyl]urea], for which the concentration for half-maximal inhibition (IC50) was 50 to 100 µM in assay [1] (setting [3]), ≥ 100 µM in assay [1] (setting [4]) and 0.005 to 0.01 µM in assay [2]. In addition, the inhibition at 100 µM in assay [1] (setting [5]) fell in the range of 50 to 75%; in assay [1] (setting [6]) it was 10 to 50%.
